According to patent US12421212B2, “Substituted benzenecarboxamides as IL-17A modulators” (DiCE Alpha, Inc., priority 2019, dated 2025):

Each compound was assayed against T1, IL-17A/A (Homo sapiens, UniProt Q16552) (assay: IL-17A/A HEK-Blue Cell Assay). Settings: HEK-Blue IL-17A reporter cell line, SEAP readout at A630, 20 hours incubation with IL-17A/A; top concentration 10 uM, 1 uM or 0.3 uM.
T1 construct: purchased Genscript Z03228
T1 sequence (Q16552 24-155): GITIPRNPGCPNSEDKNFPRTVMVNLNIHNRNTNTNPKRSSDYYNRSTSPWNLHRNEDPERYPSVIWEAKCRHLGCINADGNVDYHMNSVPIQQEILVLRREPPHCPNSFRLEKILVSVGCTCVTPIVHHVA
Format: cell-based

Row | Structure (SMILES) | IL-17A/A inhibition (pIC50)
1 | CCC(=O)N[C@@H](C(=O)N1CCN(C)CC1)[C@H](C)c1ccc(NC(=O)[C@@H](NC(=O)c2ccnn2CC)C2CCCCC2)cc1 [Compound 771] | X1a (compounds were evaluated up to 10 uM and did not inhibit activity by >80%, however they showed some activity at 10 uM (less than 80% and more than 20%))
2 | CCC(=O)N[C@H](Cc1ccc(NC(=O)[C@@H](NC(=O)c2nccn2CC)C2CCCCC2)c(F)c1)C(=O)N1CCN(C)CC1 [Compound 772] | X1a (compounds were evaluated up to 10 uM and did not inhibit activity by >80%, however they showed some activity at 10 uM (less than 80% and more than 20%))
3 | CCC(=O)N[C@H](Cc1ccc(NC(=O)[C@@H](NC(=O)c2cc(CC(C)C)nn2CC)C2CCCCC2)c(F)c1)C(=O)N1CCN(C)CC1 [Compound 773] | X1b (compounds were evaluated up to 10 uM and inhibited activity at 10 uM by less than 20%)
4 | CCC(=O)N[C@H](Cc1ccc(NC(=O)[C@@H](NC(=O)c2c3c(nn2CC)CCC3)C2CCCCC2)c(F)c1)C(=O)N1CCN(C)CC1 [Compound 774] | X1b (compounds were evaluated up to 10 uM and inhibited activity at 10 uM by less than 20%)
5 | CCC(=O)N[C@H](Cc1ccc(NC(=O)[C@@H](NC(=O)c2ccnn2CC)c2ccccc2)c(F)c1)C(=O)N1CCN(C)CC1 [Compound 775] | X1b (compounds were evaluated up to 10 uM and inhibited activity at 10 uM by less than 20%)
6 | CCC(=O)N[C@H](Cc1ccc(NC(=O)[C@@H](NC(=O)Cc2c[nH]cn2)C2CCCCC2)c(F)c1)C(=O)N1CCN(C)CC1 [Compound 776] | X1b (compounds were evaluated up to 10 uM and inhibited activity at 10 uM by less than 20%)
7 | CCC(=O)N[C@H](Cc1ccc(NC(=O)[C@@H](NC(=O)c2c(CO)noc2C)C2CCCCC2)c(F)c1)C(=O)N1CCN(C)CC1 [Compound 777] | X1b (compounds were evaluated up to 10 uM and inhibited activity at 10 uM by less than 20%)
8 | CCC(=O)N[C@H](Cc1ccc(NC(=O)[C@@H](NC(=O)Cc2ccc(=O)[nH]c2)C2CCCCC2)c(F)c1)C(=O)N1CCN(C)CC1 [Compound 778] | X1b (compounds were evaluated up to 10 uM and inhibited activity at 10 uM by less than 20%)
9 | CCC(=O)N[C@H](Cc1ccc(NC(=O)[C@@H](NC(=O)c2ccc(C(=O)NC)s2)C2CCCCC2)c(F)c1)C(=O)N1CCN(C)CC1 [Compound 779] | X1a (compounds were evaluated up to 10 uM and did not inhibit activity by >80%, however they showed some activity at 10 uM (less than 80% and more than 20%))
10 | CCC(=O)N[C@H](Cc1ccc(NC(=O)[C@@H](NC(=O)c2ccc(C(=O)NC)n2C)C2CCCCC2)c(F)c1)C(=O)N1CCN(C)CC1 [Compound 780] | X1b (compounds were evaluated up to 10 uM and inhibited activity at 10 uM by less than 20%)
11 | CCC(=O)N[C@H](Cc1ccc(NC(=O)[C@@H](NC(=O)c2cnc(C(=O)NC)[nH]2)C2CCCCC2)c(F)c1)C(=O)N1CCN(C)CC1 [Compound 781] | X1b (compounds were evaluated up to 10 uM and inhibited activity at 10 uM by less than 20%)
12 | CCC(=O)N[C@H](Cc1ccc(NC(=O)[C@@H](NC(=O)Cc2cccc(O)c2)C2CCCCC2)c(F)c1)C(=O)N1CCN(C)CC1 [Compound 782] | X1b (compounds were evaluated up to 10 uM and inhibited activity at 10 uM by less than 20%)
13 | CCC(=O)N[C@H](Cc1ccc(NC(=O)[C@@H](NC(=O)c2cnc(C(=O)NCC(F)F)[nH]2)C2CCCCC2)c(F)c1)C(=O)N1CCN(C)CC1 [Compound 783] | X1b (compounds were evaluated up to 10 uM and inhibited activity at 10 uM by less than 20%)

Same assay, conditions: HEK-Blue IL-17A reporter cell line, SEAP readout at A630, 20 hours incubation with IL-17A/A; top concentration 10 uM, 1 uM or 0.3 uM; read-out: IL-17A/A inhibition (pIC50) (converted)

Row | Structure (SMILES) | IC50
14 | CCC(=O)N[C@H](Cc1ccc(NC(=O)[C@@H](NC(=O)c2ccnn2CC)C2CCCCC2)c(F)c1)C(=O)N1CCN(C2COC2)CC1 [Compound 770] | 0.1 to 10 µM
